pIC50: −log10 of the molar value.
target: Gastrin/cholecystokinin type B receptor (Cavia porcellus); assay: Half-maximal inhibition of binding of [125I]gastrin to guinea pig gastric glands

Row | SMILES | pIC50
1 | O=C1Nc2ccccc2C1C[C@H]1N=C(c2ccccc2)c2cc(Cl)ccc2NC1=O (stereo not given in full) | < 4.00
2 | CN1C(=O)[C@@H](Cc2cn(C)c3ccccc23)N=C(c2ccccc2)c2ccccc21 | 4.17
3 | CCN1C(=O)[C@@H](Cc2c[nH]c3ccccc23)N=C(c2ccccc2F)c2ccccc21 | < 4.00
4 | O=C1Nc2ccc(Cl)cc2C(c2ccccc2)=N[C@@H]1COCc1ccccc1 | 4.89
5 | O=C(O)CN1C(=O)[C@@H](Cc2c[nH]c3ccccc23)N=C(c2ccccc2F)c2ccccc21 [CCK antagonist synthetic 13] | 5.30
6 | CN1C(=O)[C@@H](Cc2c[nH]c3ccccc23)N=C(c2ccccc2)c2ccccc21 | 4.68
7 | CC(C)C[C@H]1N=C(c2ccccc2)c2cc(Cl)ccc2NC1=O | 4.42
8 | O=C(O)CCN1C(=O)[C@@H](Cc2c[nH]c3ccccc23)N=C(c2ccccc2F)c2ccccc21 | 5.24
9 | CC(C)CC(N)C(=O)N1CC(CC2N=C(c3ccccc3)c3ccccc3NC2=O)c2ccccc21 (stereo not given) | < 4.00
10 | CC(C)CCN1C(=O)[C@@H](Cc2c[nH]c3ccccc23)N=C(c2ccccc2F)c2ccccc21 | 4.64

Reference: BindingDB's records for doi:10.1021/jm00390a019 (1987)
